Read-outs that look alike come from different tables or passages of the source.
What was measured:
mice = assay: Assessment of behaviour and mortality in mice (Irwin's method); design: species or system mouse (male Crl:(CD-1)(ICR)BR); conditions: mouse, in vivo, po
Protocol: (§1) The assessment of normal behaviour in mice was carried out following S. Irwin's method (Psychopharmacologia, 13, 222 [1968]). This method allows alterations in some behavioural, neurophysiologic and neurovegetative parameters to be detected, which are directly observable by the researcher. The study was conducted using male Crl:(CD-1)(ICR)BR mice (Charles River--Italy) weighing 22-25 g, following oral administration of the compounds suspended in carboxymethylcellulose (0.5% by weight in H2 O) to groups of 4 animals/dose.
(§2) The animals were continously kept under observation for five hours following treatment and twice a day in the subsequent five days. Mortality was also observed during the overall test period.

[1] = as above; design: species or system mouse (male Crl:(CD-1)(ICR)BR); conditions: mouse, in vivo; oral, dose 1000, 4 animals/dose
Protocol: as §1, §2

HEp-2 cells = assay: HEp-2 cell viability (Propidium Iodine cytofluorimetry); type: cell-based, human
Protocol: The investigation aimed at evaluating the difference in susceptibility to ST 722 of planktonic and sessile Helicobacter cells, using in the latter case an "in vitro" experimental model, which closely resembled the clinical condition occurring "in vivo" in type-B gastritis. […] Additionally, the viability of HEp-2 cells (either infected or not) was evaluated following "in vitro" ST 722 treatment. The degree of cytotoxicity was assessed by cytofiuorimetric analysis of Propidium Iodine-stained HEp-2 cells. […]
The antibacterial and cytotoxic activity of ST 722 against Helicobacter and HEp-2 cells, respectively, was evaluated by using 3 different ST 722 concentrations, namely 0.1, 1.56 (i.e. the MIC value vs. H. pylori NCTC 11637) and 4 mcg/ml. […]
Three and twenty-four hours following ST 722 addition, the cells were trypsinized and harvested by centrifugation at 800 g, The cell pellets were then resuspended in 500 μl PBS and additioned with 6 μl of a 1 mcg/ml Propidium Iodine stock solution in PBS, The same procedure was followed for the control, i.e. HEp-2 cells not infected with H. pylori. The cell suspensions were finally analyzed by means of a FACScan cytofluorimeter.

peritoneal macrophage = assay: Test 4: peritoneal macrophage number in mice; type: in vivo, mouse (male B6 D2 F1); conditions: 100 mg/kg/day for 5 consecutive days, oral
Protocol: Evaluation of the effect of repeated oral administrations of ST 722 on the peritoneal macrophage number in mice.
Male B6 D2 F1 mice (C. River) aged 10 weeks (6 animals each group) were orally treated with the substance ST 722 at the dose of 100 mg/kg/day for 5 consecutive days. Twenty-four hours after the last administration, the animals were sacrificed, the peritoneal exudate cells (PEC) collected and the macrophage number determined.

[2] = tested on: Helicobacter pylori NCTC 11637; assay: MIC in agar (agar dilution); type: cell-based; conditions: for MIC: Helicobacter pylori, NCTC11637
Protocol: In this experiment the activity of ST 722 and ST 712 against Campylobacter and Helicobacter was investigated.
Campylobacter fetus ATCC 27374, Campylobacter coli LI 048, Campylobacter jejuni 84-ISS, and Helicobacter pylori NCTC 11637.
The culture medium was Columbia agar base supplemented with 7% (V/V) defribinated horse blood (DHB) for Campylobacter strains, and the same medium additioned with Vitox (Oxoid) for Helicobacter strain.
The Campylobacter and Helicobacter strains, preserved at -80° C. in DHB containing 10% (V/V) glycerol, were thawed and grown, in their respective culture medium, in culture flasks, which were incubated for 48 hours at 37° C. in a 10% CO2 atmosphere. After this first growth cycle, the bacteria were allowed to go through a second growth cycle in the same conditions as above.
The bacterial "patina" was then harvested by resuspension in 4-5 ml of Mueller-Hinton broth, the turbidity of which was then assessed according to Mc Farland's criteria (BRAY W. E., Clinical Laboratory Methods, 5th Ed. C. V. MOSBY, St. Louis, Mo. 1957). […]
With a Steers-type multipoint inoculator (STEERS E., FOLTZ E. L., GRAVES S., RIDEN J., 1959. Inocula-replicating apparatus for routine testing of antibacterial susceptibility to antibiotics. Antibiot. Chemoter. 9: 307-311) 1-μl volumes of the above standardized suspensions were spot-transferred into the wells of a 96-well microtiter plate, which had previously been filled with 0.2 ml/well of Mueller-Hinton agar 5% DHB, containing the test substances at different concentrations.
The plates was then incubated for 48/72 hours at 37° C. in a 10% CO2 atmosphere.

CCCCCCCCCCCOC(=O)CC(C[N+](C)(C)C)OC(=O)CC(C)C [ST 722, Isovaleryl-L-Carnitine Undecyl Ester Chloride]
Symptoms (mice): salivation, diarrhoea | mortality at 120 h [1]: 0% | cytotoxicity versus HEp-2 cells (HEp-2 cells; 4 mcg/ml (data not shown)): unable to induce detectable cytotoxicity | cytotoxicity versus HEp-2 cells (HEp-2 cells; Propidium Iodine staining): devoid of any cytotoxicity | Body weight (peritoneal macrophage): 28.13 ± 1.30 g | increase in the peritoneal macrophages number (peritoneal macrophage): about 60% | toxic effect in PEC macrophage population (peritoneal macrophage): No toxic effect has been observed | PEC M.phi. (peritoneal macrophage; 6 pooled samples): 63% | MIC ([2]; I = inoculum of 1.0 × 10^5 cells/ml, read-out: MIC in agar): 1.56 µg/mL | MIC ([2]; agar medium, inoculum not given, read-out: MIC vs. H. pylori NCTC 11637): 1.56 µg/mL | MIC in agar ([2]; II = inoculum of 1.0 × 10^6 cells/ml): 1.56 µg/mL | antibacterial activity for Helicobacter and Campylobacter ([2]; agar, Helicobacter and Campylobacter strains): possess an antibacterial activity
